Measured values from patent US9809573B2, “Substituted pyridine derivatives useful as GSK-3 inhibitors” (priority 2013, dated 2017).
Like-named read-outs stand apart in the source and are kept apart here.

How the values were obtained:
GSK3β = GSK3β (Homo sapiens, UniProt P49841); experiment: GSK3β kinase assay (Caliper LabChip3000, fluoresceinated peptide substrate); format: biochemical
How it was run: (§1)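 Readout: electrophoretic resolution of phosphorylated from unphosphorylated peptide on a LabChip3000. Reactions incubated 20 h at room temperature before termination with 35 mM EDTA. Eleven-concentration curves gave IC50 via non-linear regression.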

GSK3α = GSK3α (Homo sapiens, UniProt P49840); experiment: biochemical
Chain of GSK3α (P49840 whole entry, species assumed): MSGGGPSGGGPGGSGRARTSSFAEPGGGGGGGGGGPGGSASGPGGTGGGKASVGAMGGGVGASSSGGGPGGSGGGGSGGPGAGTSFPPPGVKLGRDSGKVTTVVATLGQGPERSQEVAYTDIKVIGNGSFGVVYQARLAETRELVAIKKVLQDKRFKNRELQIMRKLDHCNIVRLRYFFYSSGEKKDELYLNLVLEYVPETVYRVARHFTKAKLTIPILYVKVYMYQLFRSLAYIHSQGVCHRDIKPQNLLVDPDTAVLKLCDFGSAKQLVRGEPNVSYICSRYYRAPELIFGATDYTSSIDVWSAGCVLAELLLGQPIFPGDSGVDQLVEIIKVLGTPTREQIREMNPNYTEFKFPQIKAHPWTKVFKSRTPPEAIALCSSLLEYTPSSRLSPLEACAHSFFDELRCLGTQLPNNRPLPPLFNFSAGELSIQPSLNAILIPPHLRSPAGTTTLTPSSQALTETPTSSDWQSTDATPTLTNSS
How it was run: as §1

pTau = pTau assay (method not described); format: cell-based
[1] = second value of the cell, 250 pM enzyme, 20 uM ATP, 20 hours at room temperature, read-out: GSK3β/α (nM): GSK3α IC50
[2] = first value of the cell, 250 pM enzyme, 20 uM ATP, 20 hours at room temperature, read-out: GSK3β/α (nM): GSK3β IC50

Chain of GSK3β (P49841 whole entry, species assumed): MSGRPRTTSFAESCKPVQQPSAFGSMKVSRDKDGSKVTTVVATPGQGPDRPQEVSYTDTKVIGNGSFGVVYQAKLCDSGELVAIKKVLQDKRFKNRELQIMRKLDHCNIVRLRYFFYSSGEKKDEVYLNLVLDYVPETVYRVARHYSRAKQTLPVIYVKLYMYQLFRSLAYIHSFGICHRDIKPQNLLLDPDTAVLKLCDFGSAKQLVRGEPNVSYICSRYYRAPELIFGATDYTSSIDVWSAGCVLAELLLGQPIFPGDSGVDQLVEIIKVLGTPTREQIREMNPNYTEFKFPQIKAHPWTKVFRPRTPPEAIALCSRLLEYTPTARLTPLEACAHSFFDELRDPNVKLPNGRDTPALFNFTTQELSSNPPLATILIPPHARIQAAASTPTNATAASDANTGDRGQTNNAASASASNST

| Compound | IC50 (GSK3β) [nM] | IC50 (GSK3α; [1]) [nM] | IC50 (pTau; read-out: pTau) [nM] | IC50 (GSK3β; [2]) [nM] | IC50 (GSK3α) [nM] | IC50 (pTau; read-out: pTau (nM)) [nM] |
| --- | --- | --- | --- | --- | --- | --- |
| O=C(Nc1cncc(-c2ccccc2)c1)c1ccnc(NC(=O)C2CC(F)(F)C2)c1 [Example 214, 2-(3,3-difluorocyclobutanecarboxamido)-N-(5-phenylpyridin-3-yl)isonicotinamide] | 4.1 | 2.9 | 490 | – | – | – |
| O=C(Nc1cnccc1-c1ccccc1)c1ccnc(NC(=O)C2CC(F)(F)C2)c1 [Example 216, 2-(3,3-Difluorocyclobutanecarboxamido)-N-(4-phenylpyridin-3-yl)isonicotinamide] | 1.9 | 3.4 | 120 | – | – | – |
| CC1(C)CC(C(=O)Nc2cc(C(=O)Nc3cnccc3-c3ccccc3)ccn2)C1 [Example 217, 2-(3,3-Dimethylcyclobutanecarboxamido)-N-(4-phenylpyridin-3-yl)isonicotinamide] | 1.7 | 3.2 | 170 | – | – | – |
| O=C(Nc1cnccc1-c1ccccc1)c1ccnc(NC(=O)[C@H]2C[C@H](O)C2)c1 [Example 219, 2-((1,3-Trans)-3-hydroxycyclobutanecarboxamido)-N-(4-phenylpyridin-3-yl)isonicotinamide] | – | 6.4 | 450 | 17 | – | – |
| CCOc1ccncc1NC(=O)c1ccnc(NC(=O)C2CCCC2)c1 [Example 226, 2-(Cyclopentanecarboxamido)-N-(4-ethoxypyridin-3-yl)isonicotinamide] | 0.62 | 0.41 | 31 | – | – | – |
| O=C(Nc1cnccc1-c1ccccc1)c1ccnc(NC(=O)C2CCCC2)c1 [Example 227, 2-(Cyclopentanecarboxamido)-N-(4-phenylpyridin-3-yl)isonicotinamide] | 1.6 | – | – | – | 1.4 | 47 |
| O=C(Nc1cncc2ccccc12)c1ccnc(NC(=O)C2CCCC2)c1 [Example 228, 2-(Cyclopentanecarboxamido)-N-(isoquinolin-4-yl)isonicotinamide] | – | 1.1 | 130 | 1.6 | – | – |
| O=C(Nc1cnccc1-c1ccc(Cl)cc1)c1ccnc(NC(=O)C2CCC(F)(F)C2)c1 (stereo not drawn) [Example 231, N-(4-(4-chlorophenyl)pyridin-3-yl)-2-(3,3-difluorocyclopentanecarboxamido)isonicotinamide] | 0.46 | 0.9 | 30 | – | – | – |
| O=C(Nc1cncc(-c2ccccc2)c1)c1ccnc(NC(=O)C2CCCC2)c1 [Example 232, 2-(cyclopentanecarboxamido)-N-(5-phenylpyridin-3-yl)isonicotinamide] | 1.2 | 0.51 | 330 | – | – | – |
| O=C(Nc1cncc(-c2ccccc2)c1)c1ccnc(NC(=O)C2CCC(F)(F)C2)c1 (stereo not drawn) [Example 233, 2-(3,3-difluorocyclopentanecarboxamido)-N-(5-phenylpyridin-3-yl)isonicotinamide] | – | 0.33 | 340 | 1 | – | – |
| O=C(Nc1cncc(-c2ccccc2F)c1)c1ccnc(NC(=O)C2CCC(F)(F)C2)c1 (stereo not drawn) [Example 234, 2-(3,3-difluorocyclopentanecarboxamido)-N-(5-(2-fluorophenyl)pyridin-3-yl)isonicotinamide] | 1.4 | 0.9 | 160 | – | – | – |
| O=C(Nc1cncc(-c2cccc(F)c2F)c1)c1ccnc(NC(=O)C2CCC(F)(F)C2)c1 (stereo not drawn) [Example 235, 2-(3,3-difluorocyclopentanecarboxamido)-N-(5-(2,3-difluorophenyl)pyridin-3-yl)isonicotinamide] | 1.4 | – | – | – | 0.6 | 130 |
| O=C(Nc1cncc(-c2cc(F)ccc2F)c1)c1ccnc(NC(=O)C2CCC(F)(F)C2)c1 (stereo not drawn) [Example 236, 2-(3,3-difluorocyclopentanecarboxamido)-N-(5-(2,5-difluorophenyl)pyridin-3-yl)isonicotinamide] | – | 2.1 | 180 | 4.3 | – | – |
| O=C(Nc1cncc(-c2ccccc2Cl)c1)c1ccnc(NC(=O)C2CCC(F)(F)C2)c1 (stereo not drawn) [Example 237, N-(5-(2-chlorophenyl)pyridin-3-yl)-2-(3,3-difluorocyclopentanecarboxamido)isonicotinamide] | 4.1 | 0.78 | 94 | – | – | – |
| CCC1(c2cc(Cl)ncc2NC(=O)c2ccnc(NC(=O)C3CCC(F)(F)C3)c2)OCCO1 (stereo not drawn) [Example 238, N-(6-chloro-4-(2-ethyl-1,3-dioxolan-2-yl)pyridin-3-yl)-2-(3,3-difluorocyclopentanecarboxamido)isonicotinamide] | – | 0.07 | 8.3 | 0.11 | – | – |
